Columns and labels:
CK2α = molecular target: T1, CK2α (Homo sapiens, UniProt P68400); assay: Biochemical assay for inhibitors of CK2α kinase activity (ADP-Glo); conditions: 0.2 nM CK2α, 50 μM peptide substrate, 15 μM ATP, read-out: Assay 1: CK2α Enzyme IC50
T1 construct: CK2α (residues 2-329) was produced in Escherichia coli BL21 (DE3) for kinase activity screening; His6 (N, cleaved yes); made in house; host or cells: Escherichia coli BL21 (DE3)
T1 sequence (P68400 2-329): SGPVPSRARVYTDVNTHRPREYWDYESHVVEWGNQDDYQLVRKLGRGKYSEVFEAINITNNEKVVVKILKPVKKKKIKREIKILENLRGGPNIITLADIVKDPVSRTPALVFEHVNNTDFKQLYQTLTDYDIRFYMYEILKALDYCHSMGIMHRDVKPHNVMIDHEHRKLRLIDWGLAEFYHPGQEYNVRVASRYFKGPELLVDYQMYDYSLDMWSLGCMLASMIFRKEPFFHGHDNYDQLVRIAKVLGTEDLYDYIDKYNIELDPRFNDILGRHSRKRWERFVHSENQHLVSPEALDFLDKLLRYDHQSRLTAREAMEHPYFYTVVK
Method: The inhibitory activity of putative kinase inhibitors and the potency of selected compounds were determined using ADP-Glo™ assay. The kinase reaction was performed in the presence of excess peptide substrate and ATP at a concentration equivalent to Km. Upon termination of the kinase reaction, remaining ATP was depleted leaving only ADP reaction product, which was converted back to ATP with a coupled luciferin/luciferase reaction. The luminescent output from the coupled reaction was quantified and correlated with the kinase activity. […] Single colonies of the cells were grown in 6×1 L of 2×TY with 100 μg/mL ampicillin at 37° C. […] The cells were incubated overnight at 25° C. then harvested by centrifugation at 4,000 g for 20 minutes. The cell pellets were suspended in 20 mM Tris, 500 mM NaCl, pH 8.0 and lysed using a high pressure homogenizer. Protease inhibitor cocktail tablets (one tablet per 50 mL extract; Roche Diagnostics) and DNase I were then added. The crude cell extract was then centrifuged at 10,000 g for 45 minutes, the supernatant was filtered with a 0.22 μm filter. The soluble supernatant was applied on a Ni Sepharose Fast Flow6 column at pH 8.0, washed and eluted in 20 mM Tris pH 8.0, 500 mM NaCl, 200 mM imidazole. […] The cleaved protein was further purified on a Sepharose Q HP anion-exchange column and the main peak fraction from this column was further purified by gel filtration on a Superdex 75 16/60 HiPrep column equilibrated with Tris 20 mM, pH 8.0, 500 mM NaCl. Pure protein was concentrated to 15 mg/mL and flash frozen in liquid nitrogen. […] The assay was conducted as follows: • 1. […] After 120 minutes, the reaction was stopped by addition of 5 pl ADP-Glo reagent (Promega V9102) and the plate incubated at RT for a further 60 minutes. • 5. 10 μL of Kinase Detection reagent (Promega V9102) was added to assay plate and incubated for a further 30 minutes prior to reading luminescence on an Envision (Perkin-Elmer). Data was analysed to calculate compound IC50and Ki as follows: • 1. […] Percent activity was calculated for each well using: (Test well reading−MEAN100%inhibition control wells)/(MEAN0% inhibition control wells−MEAN100%inhibition control wells). • 5. Morrison Ki was determined using Morrison Ki equation (XL-fit).

CLK2 = molecular target: T2, CLK2 (Homo sapiens, UniProt P49760); assay: Biochemical assay for inhibitors of CLK2 kinase activity (ADP-Glo); conditions: 20 nM CLK2, 50 μM peptide substrate, 100 μM ATP, read-out: Assay 2: CLK2 Enzyme IC50
T2 construct: purchased Carna Biosciences 04-127
T2 sequence (P49760 whole entry): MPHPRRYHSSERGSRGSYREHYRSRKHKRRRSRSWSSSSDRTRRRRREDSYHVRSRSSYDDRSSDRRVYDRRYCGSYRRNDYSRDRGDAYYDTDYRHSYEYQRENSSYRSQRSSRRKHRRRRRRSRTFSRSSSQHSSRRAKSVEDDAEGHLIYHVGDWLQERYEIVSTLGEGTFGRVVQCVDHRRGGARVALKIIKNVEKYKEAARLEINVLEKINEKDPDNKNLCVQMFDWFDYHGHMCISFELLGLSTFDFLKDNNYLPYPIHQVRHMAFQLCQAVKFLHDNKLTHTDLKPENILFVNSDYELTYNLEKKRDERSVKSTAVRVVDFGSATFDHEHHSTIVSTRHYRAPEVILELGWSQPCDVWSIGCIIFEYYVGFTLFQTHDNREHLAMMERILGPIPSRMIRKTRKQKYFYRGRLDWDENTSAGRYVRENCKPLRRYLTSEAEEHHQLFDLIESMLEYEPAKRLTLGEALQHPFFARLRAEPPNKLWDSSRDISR
Method: The inhibitory activity of putative kinase inhibitors and the potency of selected compounds were determined using ADP-GloTM assay. The kinase reaction was performed in the presence of excess peptide substrate and ATP at a concentration equivalent to Km. Upon termination of the kinase reaction, remaining ATP was depleted leaving only ADP reaction product, which was converted back to ATP with a coupled luciferin/luciferase reaction. The luminescent output from the coupled reaction was quantified and correlated with the kinase activity. […] The assay was conducted as follows: • 1. […] After 120 minutes, the reaction was stopped by addition of 5 pl ADP-Glo reagent (Promega V9102) and the plate incubated at RT for a further 60 minutes. • 5. 10 μL of Kinase Detection reagent (Promega V9102) was added to assay plate and incubated for a further 30 minutes prior to reading luminescence on an Envision (Perkin-Elmer). Data was analysed to calculate compound IC50and Ki as follows: • 1. […] Morrison Ki was determined using Morrison Ki equation (XL-fit).

intracellular CK2α = molecular target: T3, intracellular CK2α (Homo sapiens, UniProt P19784); assay: Cell-based NanoBRET assay for inhibitor binding to intracellular CK2α; conditions: HCT116 cells transiently transfected with CSNK2A2-NanoLuc fusion vector; Tracer K-5; 2 h; read-out: Assay 3: NanoBRET ™ assay for binding to intracellular CK2α
T3 construct: host or cells: HCT116 (ATCC CCL-247)
T3 sequence (P19784 whole entry, the tested form may be a part): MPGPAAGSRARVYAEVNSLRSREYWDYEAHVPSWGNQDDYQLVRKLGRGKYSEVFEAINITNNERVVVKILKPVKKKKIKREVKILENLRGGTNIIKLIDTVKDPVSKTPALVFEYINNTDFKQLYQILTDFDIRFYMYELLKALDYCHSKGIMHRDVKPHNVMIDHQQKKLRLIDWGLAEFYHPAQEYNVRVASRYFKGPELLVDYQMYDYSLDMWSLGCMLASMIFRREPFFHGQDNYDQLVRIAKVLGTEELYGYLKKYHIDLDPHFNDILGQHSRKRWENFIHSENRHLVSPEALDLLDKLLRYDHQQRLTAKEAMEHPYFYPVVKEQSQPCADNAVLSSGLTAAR
Method: This assay used the NanoBRET™ System (Promega), an energy transfer technique designed to measure molecular proximity in living cells. The assay measured the apparent affinity of test compounds by competitive displacement of a NanoBRET™ tracer reversibly bound to a NanoLucR luciferase CK2α fusion protein in cells. A fixed concentration of tracer was added to cells expressing the desired NanoLucR-CK2α fusion protein to generate a BRET reporter complex. […] Donor emission wavelength (450 nm) and acceptor emission wavelength (610 nm or 630 nm) were measured on the Envision (Perkin-Elmer) and BRET ratio calculated for data analysis: BRET Ratio=(Acceptorsample/Donorsample)×1,000. • 7.

| SMILES | IC50 (CK2α) | IC50 (CLK2) | IC50 (intracellular CK2α) |
| --- | --- | --- | --- |
| O=C(O)c1cc(NCCOCCCCNCc2cc(F)c(OC(F)(F)F)c(F)c2)c2cn[nH]c2c1 [Example 197, 4-((2-(4-((3,5-difluoro-4-(trifluoromethoxy)benzyl)amino)butoxy)ethyl)amino)-1H-indazole-6-carboxylic acid] | > 1000 nM | > 50000 nM | > 3000 nM |
| O=C(COCCCCNCc1ccc(OC(F)(F)F)c(Cl)c1)Nc1cc(-n2cnnc2)cc2[nH]ncc12 [Example 48, N-(6-(4H-1,2,4-triazol-4-yl)-1H-indazol-4-yl)-2-(4-((3-chloro-4-(trifluoromethoxy)benzyl)amino)butoxy)acetamide] | 20.3 nM | 993 nM | 2750 nM |
| FC(F)(F)c1ccc2[nH]c(CNCCCCOCCNc3cc(-n4cnnc4)cc4[nH]ncc34)cc2c1 [Example 49, 6-(4H-1,2,4-triazol-4-yl)-N-(2-(4-(((5-(trifluoromethyl)-1H-indol-2-yl)methyl)amino)butoxy)ethyl)-1H-indazol-4-amine] | 0.44 nM | 90.5 nM | 106 nM |
| Clc1cc(CNCCc2cn(CCNc3cc(-n4cnnc4)cc4[nH]ncc34)nn2)ccc1-c1ccccc1 [Example 14, N-(2-(4-(2-(((2-chloro-[1,1′-biphenyl]-4-yl)methyl)amino)ethyl)-1H-1,2,3-triazol-1-yl)ethyl)-6-(4H-1,2,4-triazol-4-yl)-1H-indazol-4-amine] | 1.6 nM | 322 nM | 2120 nM |
| CN(C)C(=O)c1cc(NCCCNC(=O)CCNCc2ccc(-c3ccccc3)c(Cl)c2)c2cn[nH]c2c1 [Example 62, 4-((3-(3-(((2-chloro-[1,1'-biphenyl]-4-yl)methyl)amino)propanamido)propyl)amino)-N,N-dimethyl-1H-indazole-6-carboxamide] | 182 nM | 14300 nM | 29600 nM |
| c1cc2[nH]c(CNCCCCOC3CN(c4cc(-n5cnnc5)cc5[nH]ncc45)C3)cc2cc1OC1CCC1 [Example 124, 4-((1-(6-(4H-1,2,4-triazol-4-yl)-1H-indazol-4-yl)azetidin-3-yl)oxy)-N-((5-cyclobutoxy-1H-indol-2-yl)methyl)butan-1-amine] | 7.44 nM | 134 nM | 1990 nM |
| c1cc2[nH]c(CNCCCCOCCOc3cc(-n4cnnc4)cc4[nH]ncc34)cc2cc1OC1CCC1 [Example 118, 4-(2-((6-(4H-1,2,4-triazol-4-yl)-1H-indazol-4-yl)oxy)ethoxy)-N-((5-cyclobutoxy-1H-indol-2-yl)methyl)butan-1-amine] | 0.86 nM | 1100 nM | 204 nM |
| FC(F)(F)c1ccc2[nH]c(CNCCCCOCCNc3cc(-c4cnoc4)cc4[nH]ncc34)cc2c1 [Example 97, 6-(isoxazol-4-yl)-N-(2-(4-(((5-(trifluoromethyl)-1H-indol-2-yl)methyl)amino)butoxy)ethyl)-1H-indazol-4-amine] | 1.42 nM | 104 nM | 321 nM |
| Fc1cc(CNCCCCOCCNc2cc(-c3ccncc3)c(Cl)c3[nH]ncc23)cc(F)c1OC(F)(F)F [Example 166, 7-chloro-N-(2-(4-((3,5-difluoro-4-(trifluoromethoxy)benzyl)amino)butoxy)ethyl)-6-(pyridin-4-yl)-1H-indazol-4-amine] | 21.3 nM | 783 nM | 2670 nM |
| O=C(CCNCc1ccc(-c2ccccc2)c(Cl)c1)NCCC(=O)Nc1cc(-n2cnnc2)cc2[nH]ncc12 [Example 12, N-(6-(4H-1,2,4-triazol-4-yl)-1H-indazol-4-yl)-3-(3-(((2-chloro-[1,1′-biphenyl]-4-yl)methyl)amino)propanamido)propanamide] | 0.6 nM | 612 nM | 6830 nM |

Continued, values first:

| IC50 (CK2α) | IC50 (CLK2) | IC50 (intracellular CK2α) | SMILES |
| --- | --- | --- | --- |
| 1.39 nM | 48.9 nM | 1400 nM | Cn1c(CNCCC(=O)NCCCNc2cc(-n3cnnc3)cc3[nH]ncc23)cc2ccc(Cl)cc21 [Example 36, N-(3-((6-(4H-1,2,4-triazol-4-yl)-1H-indazol-4-yl)amino)propyl)-3-(((6-chloro-1-methyl-1H-indol-2-yl)methyl)amino)propanamide] |
| 8.92 nM | 69.7 nM | 69.9 nM | C[C@H](COCCCCNCc1cc(CO)cc(OC(F)(F)F)c1)Nc1cc(-c2cnns2)cc2[nH]ncc12 [Example 208, (R)-(3-(((4-(2-((6-(1,2,3-thiadiazol-5-yl)-1H-indazol-4-yl)amino)propoxy)butyl)amino)methyl)-5-(trifluoromethoxy)phe-nyl)methanol] |
| 0.28 nM | 40.9 nM | 9290 nM | O=C(CCNCc1ccc(-c2ccccc2CO)c(Cl)c1)NCCCNc1cc(-n2cnnc2)cc2[nH]ncc12 [Example 58, N-(3-((6-(4H-1,2,4-triazol-4-yl)-1H-indazol-4-yl)amino)propyl)-3-(((2-chloro-2′-(hydroxymethyl)-[1,1′-biphenyl]-4-yl)methyl)amino)propanamide] |
| 0.54 nM | 107 nM | 70.6 nM | O=C(CCNCc1ccc(-c2ccccc2)c(Cl)c1)NCCCNc1cc(-c2cnoc2)cc2[nH]ncc12 [Example 28, 3-(((2-chloro-[1,1′-biphenyl]-4-yl)methyl)amino)-N-(3-((6-(isoxazol-4-yl)-1H-indazol-4-yl)amino)propyl)propanamide] |
| 7.41 nM | 5980 nM | 4640 nM | O=C(CCNCc1ccc(OC(F)(F)F)c(Cl)c1)NCCCNc1cc(-c2nnc[nH]2)cc2[nH]ncc12 [Example 174, N-(3-((6-(4H-1,2,4-triazol-3-yl)-1H-indazol-4-yl)amino)propyl)-3-((3-chloro-4-(trifluoromethoxy)benzyl)amino)propanamide] |
| 3 nM | 1260 nM | 214 nM | FC(F)(F)c1ccc2[nH]c(CNCCCCOCCOc3cc(-n4cnnc4)cc4[nH]ncc34)cc2c1 [Example 117, 4-(2-((6-(4H-1,2,4-triazol-4-yl)-1H-indazol-4-yl)oxy)ethoxy)-N-((5-(trifluoromethyl)-1H-indol-2-yl)methyl)butan-1-amine] |
| 215 nM | 30200 nM |  | O=C(O)c1cc(NCCCCNCCCCNCc2ccc(-c3ccccc3)c(Cl)c2)c2cn[nH]c2c1 [Example 60, 4-((4-((4-(((2-chloro-[1,1′-biphenyl]-4-yl)methyl)amino)butyl)amino)butyl)amino)-1H-indazole-6-carboxylic acid] |

Reference: patent US20260085062A1, “NOVEL COMPOUNDS AS CK2 INHIBITORS” (Cambridge Enterprise Limited, priority 2022, published 2026)
